Test results from patent US7619076B2, “Synthetic compounds useful as nodulation agents of leguminous plants and preparation processes thereof” (Bayer Cropscience S.A., priority 2003, dated 2009).
“Also recorded” adds a separate entry of the source.

Tests used:
alfalfa = test: Nodulation tests on alfalfa (induction of the formation of root nodules); type: in vivo; settings: alfalfa plantlets; for nodulation activity relative to the benzamide derivative 3: FIG. 2-4
Protocol: The sulfated products are tested on alfalfa for induction of the formation of root nodules, and on the model legume Medicago truncatula for induction of the expression of a symbiotic gene coding for an early nodulin. Alfalfa plantlets are grown under axenic conditions in test tubes on a nitrogen-poor agar medium (Demont-Caulet et al., Plant Physiol., 120, 83-92, 1999). Untreated plantlets serve as control. Natural Nod or synthetic LCO factors are added at the concentrations indicated.

[1] = tested on: MtENOD11::GUS in plant bearing a mutation in the DMI1 gene; test: Induction of early nodulin ENOD11 transcription, MtENOD11::GUS reporter, plants bearing a mutation in the DMI1 gene; type: in vivo, Medicago truncatula; settings: DMI1 mutant plants, 6 hours LCO treatment, X-Gluc
Protocol: (§1) These tests are performed to determine whether the synthetic LCOs induce symbiotic responses by activation on the same signal transduction pathway as the natural Nod factors. The tests are performed on the model legume Medicago truncatula. […] The compound that serves as reference is the sulfated tetramer 12 acylated with C16:2Δ2E,9Z chain, which is an analog of the natural Nod factor. The control is the plant cultivated in the absence of LCO.
(§2) A new gene of Medicago truncatula, MtENOD11, coding for an RPRP (Repetitive proline-rich protein), and transcribed during the first steps of infection of nodulation on the nodule roots and tissues was identified (Journet et al. Mol. Plant-Microbe Interact., 14, 737-748, 2001). Using the transgenic Medicago truncatula plant expressing the fusion MtENOD11::GUSA, it is possible to determine whether a Nod factor analog added to the culture medium of the plant has induced transcription of the ENOD11 gene.
(§3) For the ENOD11 transcription tests, a Fahraeus medium is used as for the modulation tests, but without agar. The seedlings are placed on paper in pockets containing the culture medium. […] The number of roots giving a characteristic blue response is then counted.

MtENOD11::GUSA = test: Induction of early nodulin ENOD11 transcription, MtENOD11::GUSA reporter, wild-type Jemalong plants; type: in vivo, Medicago truncatula; settings: 6 hours LCO treatment, X-Gluc blue roots counted, FIG. 5
Protocol: as §1, §2, §3

Lotus corniculatus = test: Root hair deformation assay on Lotus corniculatus; type: in vivo; design: key to Root hair deformation (Had) response: The responses were classified “+” when the proportion of Had+ was significantly higher (at the probability level P=0.05) among the treated plants compared with the untreated control; settings: for Root hair deformation (Had) response: 15 plants, 16 hr incubation
Protocol: Seeds of Lotus corniculatus (cv Rodeo) were sterilized. Germinated seeds with rootlets about 1 cm long were aseptically transferred onto Farhaeus soft agar plates. Plates were sealed with Parafilm and placed vertically for two days in a plant growth chamber (at 25° C., with a 16-hr light period, a relative humidity of 75%, OsramVFluora L 77 as the type of light, and light intensity at the level of the top of the plates of 30 μE.m-2.s-1) to allow plant growth and root hair development. Then 2 ml of a Nod factor derivative sterile solution was poured to cover the Lotus root system, and after 30 mm, excess liquid was removed. A further incubation was performed for 16 hr in the plant growth chamber. The roots of the five plants were transferred between slide and cover slip and observed by bright field microscopy after staining by methylene blue.
Hair deformation (Had) activity was estimated by a limit dilution method. Nod factor derivatives were applied at concentrations ranging from 10^-7 M to 10-11 M. The activity of two DP5 chitin derivatives were compared, the soybean Nod factor and its benzoylated analog 10. Both compounds were O-fucosylated at the reducing end, but differed by the N-substitution on the terminal non-reducing glucosamine residue, either C18:1 N-acylated like the soybean Nod factor or N-benzoylated. Each compound was dissolved in water/ethanol 50/50; 0,01% Chaps was added at a concentration of 1 mM. These stock solutions were then diluted in water. […] The statistical significance (at the P=0.05) of the proportion of <<+>> responses was calculated using the ratio comparisons based on the Fisher's <<Exact>> test (SAS software). Experiments were carried out twice.
Fifteen plants were used for each treatment and each dilution. Sixty six untreated control plants were used to estimate the intrinsic plant variability for the Hair deformation character. […] Data were analysed using the Fisher's “Exact” test.

CCCCCC/C=C\CCCOc1cccc(C(=O)N[C@H]2[C@H](O[C@H]3[C@H](O)[C@@H](NC(C)=O)[C@H](O[C@H]4[C@H](O)[C@@H](NC(C)=O)[C@H](O[C@H]5[C@H](O)[C@@H](NC(C)=O)C(O)O[C@@H]5COS(=O)(=O)[O-])O[C@@H]4CO)O[C@@H]3CO)O[C@H](CO)[C@@H](O)[C@@H]2O)c1.[Na+] (stereo partly drawn) [compound 3, 2-acetamido-4-O-{2-acetamido-4-O-[2-acetamido-2-deoxy-4-O-(2-deoxy-2-(N-3-(undec-4Z-enyloxy)benzoyl)amino-β-D-glucopyranosyl)-β-D-glucopyranosyl]-2-deoxy-β-D-glucopyranosyl}-2-deoxy-6-O-sulfo-D-glucopyranose, sodium salt]
nodulation activity on alfalfa (alfalfa; axenic, nitrogen-poor agar medium, result in words, sodium salt): advantageous activity; also recorded: most active synthetic compound | nodulation activity relative to the sulfated tetramer 11 acylated with the reference C16:1Δ9Z chain (alfalfa; FIG. 1): similar | ENOD11::GUS response in plants bearing the DMI1 mutation [1]: does not induce any response | ENOD11 transcription, times less active than the reference compound, the acylated tetramer 12 (MtENOD11::GUSA): approximately 10 times

CCCCCC/C=C\CCCOc1cccc(CN[C@H]2[C@H](O[C@H]3[C@H](O)[C@@H](NC(C)=O)[C@H](O[C@H]4[C@H](O)[C@@H](NC(C)=O)[C@H](O[C@H]5[C@H](O)[C@@H](NC(C)=O)C(O)O[C@@H]5COS(=O)(=O)[O-])O[C@@H]4CO)O[C@@H]3CO)O[C@H](CO)[C@@H](O)[C@@H]2O)c1.[Na+] (stereo partly drawn) [compound 4, 2-acetamido 4-O-{2-acetamido-4-O-[2-acetamido-2-deoxy-4-O-(2-deoxy-2-(N-3-(undec-4Z-enyloxy)benzyl)amino-β-D-glucopyranosyl)-β-D-glucopyranosyl]-2-deoxy-β-D-glucopyranosyl}-2-deoxy-6-O-sulfo-D-glucopyranose, sodium salt]
nodulation activity relative to the benzamide derivative 3 (alfalfa): moderate activity

CCCCCC/C=C\CCCOc1cccc(CN(C(C)=O)[C@H]2[C@H](O[C@H]3[C@H](O)[C@@H](NC(C)=O)[C@H](O[C@H]4[C@H](O)[C@@H](NC(C)=O)[C@H](O[C@H]5[C@H](O)[C@@H](NC(C)=O)C(O)O[C@@H]5COS(=O)(=O)[O-])O[C@@H]4CO)O[C@@H]3CO)O[C@H](CO)[C@@H](O)[C@@H]2O)c1.[Na+] (stereo partly drawn) [compound 5, 2-acetamido-4-O-{2-acetamido-4-O-[2-acetamido-2-deoxy-4-O-(2-deoxy-2-(N-3-(undec-4Z-enyloxy)benzyl)acetamido-β-D-glucopyranosyl)-β-D-glucopyranosyl]-2-deoxy-β-D-glucopyranosyl}-2-deoxy-6-O-sulfo-D-glucopyranose, sodium salt]
nodulation activity relative to the benzamide derivative 3 (alfalfa): lower

CCCCCCC#CCCCOc1cccc(C(=O)N[C@H]2[C@H](O[C@H]3[C@H](O)[C@@H](NC(C)=O)[C@H](O[C@H]4[C@H](O)[C@@H](NC(C)=O)[C@H](O[C@H]5[C@H](O)[C@@H](NC(C)=O)C(O)O[C@@H]5COS(=O)(=O)[O-])O[C@@H]4CO)O[C@@H]3CO)O[C@H](CO)[C@@H](O)[C@@H]2O)c1.[Na+] (stereo partly drawn) [compound 7, 2-acetamido-4-O-{2-acetamido-4-O-[2-acetamido-2-deoxy-4-O-(2-deoxy-2-(N-3-(undec-4Z-ynyloxy)benzoyl)amino-β-D-glucopyranosyl)-β-D-glucopyranosyl]-2-deoxy-β-D-glucopyranosyl}-2-deoxy-6-O-sulfo-D-glucopyranose, sodium salt]
nodulation activity relative to the benzamide derivative 3 (alfalfa): comparable

CCCCCC/C=C\CCCOc1cccc(C(=O)NC2C(O)[C@H](O)C(CO)O[C@H]2O[C@@H]2C(CO)O[C@@H](O[C@@H]3C(CO)O[C@@H](O[C@@H]4C(CO)O[C@@H](O[C@@H]5C(CO[C@@H]6OC(C)[C@@H](O)C(O)C6O)OC(O)C(NC(C)=O)C5O)C(NC(C)=O)C4O)C(NC(C)=O)C3O)C(NC(C)=O)C2O)c1 (stereo partly drawn) [compound 10, 2-acetamido-4-O-[2-acetamido-4-O-{2-acetamido-4-O-[2-acetamido-2-deoxy-4-O-(2-deoxy-2-(N-3-(undec-4Z-enyloxy)benzoyl)amino-β-D-glucopyranosyl)-β-D-glucopyranosy]-2-deoxy-β-D-glucopyranosyl}-2-deoxy-β-D-glucopyranosyl]-2-deoxy-6-O-(-α-L-fucopyranosyl)-D-glucopyranose]
Root hair deformation (Had) response (Lotus corniculatus; 10^−7 M): + | Root hair deformation (Had) response (Lotus corniculatus; 10^−8 M): + | Root hair deformation (Had) response (Lotus corniculatus; 10^−9 M): + | concentration at which activity is significant in the root hair bioassay (Lotus corniculatus; limit dilution method): nanomolar | activity on the Lotus corniculatus root hair bioassay (Lotus corniculatus; result in words): high activity
